Reference: US11963960B2 (Flash Therapeutics, LLC, priority 2020, dated 2024)
pIC50: −log10 of the molar value.

Each molecule was assayed against N-terminally GST-tagged HCK (75-526) (Homo sapiens (Human), UniProt P08631) (assay: HCK Kinase Assay (ProFluor Src-Family Kinase Assay)). Settings: not given.
Sequence of N-terminally GST-tagged HCK (75-526) (P08631 75-526): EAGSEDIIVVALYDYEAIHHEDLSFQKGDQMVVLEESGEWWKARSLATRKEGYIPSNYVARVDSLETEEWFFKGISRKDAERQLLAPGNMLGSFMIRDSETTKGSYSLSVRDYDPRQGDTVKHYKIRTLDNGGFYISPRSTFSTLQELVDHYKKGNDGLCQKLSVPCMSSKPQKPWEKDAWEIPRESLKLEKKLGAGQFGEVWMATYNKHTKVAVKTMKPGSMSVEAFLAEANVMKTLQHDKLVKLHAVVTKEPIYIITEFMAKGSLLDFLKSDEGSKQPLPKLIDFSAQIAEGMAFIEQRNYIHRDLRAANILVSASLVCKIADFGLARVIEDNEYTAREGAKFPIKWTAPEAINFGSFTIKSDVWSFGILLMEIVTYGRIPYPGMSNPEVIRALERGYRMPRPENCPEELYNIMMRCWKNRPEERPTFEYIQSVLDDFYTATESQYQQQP
Assay type: biochemical
Method: The procedure of ProFluor Src-Family Kinase Assay (Promega, Cat. No. V1271) was then followed. To the reaction was added 5 μL Protease solution and the mixture was incubated for 60 minutes at room temperature (22-25° C.), followed by 5 μL Stabilizer solution. The fluorescence signal was read on an Envision multilabel plate reader (Perkin Elmer). The R110 was then read at an excitation wavelength of 485 nm and an emission wavelength of 530 nm. The AMC signal was read at an excitation wavelength of 355 nm and an emission wavelength of 460 nm.
[2H]C([2H])([2H])N1CCN([C@H]2CC[C@H](n3cc(-c4ccc(Oc5ccccc5)cc4)c4c(N)ncnc43)CC2)CC1 (single isomer, unassigned) [Example 3, 7-((trans)-4-(4-(trideuteriomethyl)piperazin-1-yl)cyclohexyl)-5-(4-phenoxyphenyl)-7H-pyrrolo[2,3-d]pyrimidin-4-amine] gave a pIC50 of over 7.30. [2H]C([2H])([2H])N1CCN([C@H]2CC[C@@H](n3cc(-c4ccc(Oc5ccccc5)cc4)c4c(N)ncnc43)CC2)CC1 (single isomer, unassigned) [Example 4, 7-((cis)-4-(4-(trideuteriomethyl)piperazin-1-yl)cyclohexyl)-5-(4-phenoxyphenyl)-7H-pyrrolo[2,3-d]pyrimidin-4-amine] gave a pIC50 of 5.00 to 6.60. [2H]C([2H])([2H])N1C([2H])([2H])C([2H])([2H])N([C@H]2CC[C@H](n3cc(-c4ccc(Oc5ccccc5)cc4)c4c(N)ncnc43)CC2)C([2H])([2H])C1([2H])[2H] (single isomer, unassigned) [Example 5, 7-((trans)-4-(4-d3-methyl-d8-piperazin-1-yl)cyclohexyl)-5-(4-phenoxyphenyl)-7H-pyrrolo[2,3-d]pyrimidin-4-amine] was tested, and the pIC50 was 5.00 to 6.60. Molecule [2H]C([2H])([2H])N1C([2H])([2H])C([2H])([2H])N([C@H]2CC[C@@H](n3cc(-c4ccc(Oc5ccccc5)cc4)c4c(N)ncnc43)CC2)C([2H])([2H])C1([2H])[2H] (single isomer, unassigned) [Example 6, 7-((cis)-4-(4-d3-methyl-d8-piperazin-1-yl)cyclohexyl)-5-(4-phenoxyphenyl)-7H-pyrrolo[2,3-d]pyrimidin-4-amine] has a pIC50 of over 7.30. [2H]c1c([2H])c([2H])c(Oc2ccc(-c3cn([C@H]4CC[C@H](N5CCN(C)CC5)CC4)c4ncnc(N)c34)cc2)c([2H])c1[2H] (single isomer, unassigned) [Example 104, 7-((trans)-4-(4-methylpiperazin-1-yl)cyclohexyl)-5-(4-pentadeuteriophenoxyphenyl)-7H-pyrrolo[2,3-d]pyrimidin-4-amine] gave a pIC50 of over 7.30. CN1CCN([C@H]2CC[C@@H](n3cc(-c4ccc(Oc5ccccc5)cc4)c4c(N)ncnc43)CC2)CC1 [Example 2, 7-((cis)-4-(4-methylpiperazin-1-yl)cyclohexyl)-5-(4-phenoxyphenyl)-7H-pyrrolo[2,3-d]pyrimidin-4-amine] gave a pIC50 of 6.60 to 7.30.

Same assay, conditions: 50 μM ATP; read-out: HCK IC50
C[C@@H]1CN([C@H]2CC[C@H](n3nc(-c4ccc(Oc5ccccc5)cc4F)c4c(N)ncnc43)CC2)CCN1 [Example 17, 3-(2-fluoro-4-phenoxyphenyl)-1-((trans)-4-((R)-3-methylpiperazin-1-yl)cyclohexyl)-1H-pyrazolo[3,4-d]pyrimidin-4-amine] gave a pIC50 of 7.78.

Same assay, conditions: HCK inhibitory activity, 50 μM ATP; read-out: HCK Activity
In the case of Nc1ncnc2c1c(-c1ccc(Oc3ccccc3)cc1)cn2[C@H]1CC[C@H](N2CCC3(CCNC3)C2)CC1 (relative stereo) [Example 136, 7-((trans)-4-(2,7-diazaspiro[4.4]nonan-2-yl)cyclohexyl)-5-(4-phenoxyphenyl)-7H-pyrrolo[2,3-d]pyrimidin-4-amine], the pIC50 was 6.60 to 7.30. In the case of Nc1ncnc2c1c(-c1ccc(Oc3ccccc3)cc1)cn2[C@H]1CC[C@@H](N2CCC3(CCNC3)C2)CC1 (relative stereo) [Example 137, 7-((cis)-4-(2,7-diazaspiro[4.4]nonan-2-yl)cyclohexyl)-5-(4-phenoxyphenyl)-7H-pyrrolo[2,3-d]pyrimidin-4-amine], the pIC50 was 6.60 to 7.30. C[N+]1(C)CCN([C@H]2CC[C@H](n3nc(-c4ccc(Oc5ccccc5)cc4F)c4c(N)ncnc43)CC2)CC1 [Example 7, 4-((trans)-4-(4-amino-3-(2-fluoro-4-phenoxyphenyl)-1H-pyrazolo[3,4-d]pyrimidin-1-yl)cyclohexyl)-1,1-dimethylpiperazin-1-ium] was tested, and the pIC50 was over 7.30. With C[N+]1(C)CCN([C@H]2CC[C@@H](n3nc(-c4ccc(Oc5ccccc5)cc4F)c4c(N)ncnc43)CC2)CC1 [Example 8, 4-((cis)-4-(4-amino-3-(2-fluoro-4-phenoxyphenyl)-1H-pyrazolo[3,4-d]pyrimidin-1-yl)cyclohexyl)-1,1-dimethylpiperazin-1-ium] the pIC50 was 6.60 to 7.30. For CCN1CCN([C@H]2CC[C@H](n3nc(-c4ccc(Oc5ccccc5)cc4F)c4c(N)ncnc43)CC2)CC1 [Example 9, 1-((trans)-4-(4-ethylpiperazin-1-yl)cyclohexyl)-3-(2-fluoro-4-phenoxyphenyl)-1H-pyrazolo[3,4-d]pyrimidin-4-amine], the pIC50 was over 7.30. Molecule Nc1ncnc2c1c(-c1ccc(Oc3ccccc3)cc1F)nn2[C@H]1CC[C@H](N2CCN(CCO)CC2)CC1 [Example 10, 2-(4-((trans)-4-(4-amino-3-(2-fluoro-4-phenoxyphenyl)-1H-pyrazolo[3,4-d]pyrimidin-1-yl)cyclohexyl)piperazin-1-yl)ethanol] has a pIC50 of over 7.30. Nc1ncnc2c1c(-c1ccc(Oc3ccccc3)cc1F)nn2[C@H]1CC[C@@H](N2CCN(CCO)CC2)CC1 [Example 11, 2-(4-((cis)-4-(4-amino-3-(2-fluoro-4-phenoxyphenyl)-1H-pyrazolo[3,4-d]pyrimidin-1-yl)cyclohexyl)piperazin-1-yl)ethanol] gave a pIC50 of 6.60 to 7.30. Work on C[C@@H]1CN([C@H]2CC[C@H](n3cc(-c4ccc(Oc5ccccc5)cc4)c4c(N)ncnc43)CC2)CCN1 [Example 12, 7-((trans)-4-((R)-3-methylpiperazin-1-yl)cyclohexyl)-5-(4-phenoxyphenyl)-7H-pyrrolo[2,3-d]pyrimidin-4-amine] yielded a pIC50 of 5.00 to 6.60. In the case of C[C@@H]1CN([C@H]2CC[C@@H](n3cc(-c4ccc(Oc5ccccc5)cc4)c4c(N)ncnc43)CC2)CCN1 [Example 13, 7-((cis)-4-((R)-3-methylpiperazin-1-yl)cyclohexyl)-5-(4-phenoxyphenyl)-7H-pyrrolo[2,3-d]pyrimidin-4-amine], the pIC50 was over 7.30. In the case of C[C@@H]1CN([C@H]2CC[C@H](n3nc(-c4ccc(Oc5ccccc5)cc4)c4c(N)ncnc43)CC2)CCN1 [Example 14, 1-((trans)-4-((R)-3-methylpiperazin-1-yl)cyclohexyl)-3-(4-phenoxyphenyl)-1H-pyrazolo[3,4-d]pyrimidin-4-amine], the pIC50 was over 7.30. C[C@@H]1CN([C@H]2CC[C@H](n3cc(-c4ccc(Oc5ccccc5)cc4F)c4c(N)ncnc43)CC2)CCN1 [Example 15, 5-(2-fluoro-4-phenoxyphenyl)-7-((trans)-4-((R)-3-methylpiperazin-1-yl)cyclohexyl)-7H-pyrrolo[2,3-d]pyrimidin-4-amine] was tested, and the pIC50 was over 7.30. C[C@@H]1CN([C@H]2CC[C@@H](n3cc(-c4ccc(Oc5ccccc5)cc4F)c4c(N)ncnc43)CC2)CCN1 [Example 16, 5-(2-fluoro-4-phenoxyphenyl)-7-((cis)-4-((R)-3-methylpiperazin-1-yl)cyclohexyl)-7H-pyrrolo[2,3-d]pyrimidin-4-amine] showed a pIC50 of 6.60 to 7.30. C[C@@H]1CN([C@H]2CC[C@H](n3nc(-c4ccc(Oc5ccccc5)cc4F)c4c(N)ncnc43)CC2)CCN1 [Example 17, 3-(2-fluoro-4-phenoxyphenyl)-1-((trans)-4-((R)-3-methylpiperazin-1-yl)cyclohexyl)-1H-pyrazolo[3,4-d]pyrimidin-4-amine] was tested, and the pIC50 was over 7.30. Work on C[C@@H]1CN([C@H]2CC[C@@H](n3nc(-c4ccc(Oc5ccccc5)cc4F)c4c(N)ncnc43)CC2)CCN1 [Example 18, 3-(2-fluoro-4-phenoxyphenyl)-1-((cis)-4-((R)-3-methylpiperazin-1-yl)cyclohexyl)-1H-pyrazolo[3,4-d]pyrimidin-4-amine] yielded a pIC50 of 5.00 to 6.60. C[C@H]1CN([C@H]2CC[C@@H](n3cc(-c4ccc(Oc5ccccc5)cc4)c4c(N)ncnc43)CC2)CCN1 [Example 20, 7-((cis)-4-((S)-3-methylpiperazin-1-yl)cyclohexyl)-5-(4-phenoxyphenyl)-7H-pyrrolo [2,3-d]pyrimidin-4-amine] showed a pIC50 of over 7.30. In the case of CC1CN([C@H]2CC[C@H](n3cc(-c4ccc(Oc5ccccc5)cc4)c4c(N)ncnc43)CC2)CCN1C (stereo partly drawn) [Example 22, 7-((trans)-4-(3,4-dimethylpiperazin-1-yl)cyclohexyl)-5-(4-phenoxyphenyl)-7H-pyrrolo[2,3-d]pyrimidin-4-amine], the pIC50 was over 7.30. With C[C@H]1CN([C@H]2CC[C@H](n3cc(-c4ccc(Oc5ccccc5)cc4)c4c(N)ncnc43)CC2)CCN1C [Example 23, 7-((trans)-4-((S)-3,4-dimethylpiperazin-1-yl)cyclohexyl)-5-(4-phenoxyphenyl)-7H-pyrrolo[2,3-d]pyrimidin-4-amine] the pIC50 was over 7.30. For C[C@@H]1CN([C@H]2CC[C@@H](n3cc(-c4ccc(Oc5ccccc5)cc4)c4c(N)ncnc43)CC2)CCN1C [Example 24, 7-((cis)-4-((R)-3,4-dimethylpiperazin-1-yl)cyclohexyl)-5-(4-phenoxyphenyl)-7H-pyrrolo[2,3-d]pyrimidin-4-amine], the pIC50 was over 7.30. C[C@@H]1CN([C@H]2CC[C@H](n3cc(-c4ccc(Oc5ccccc5)cc4)c4c(N)ncnc43)CC2)C[C@H](C)N1 [Example 25, 7-((trans)-4-((3S,5R)-3,5-dimethylpiperazin-1-yl)cyclohexyl)-5-(4-phenoxyphenyl)-7H-pyrrolo[2,3-d]pyrimidin-4-amine] gave a pIC50 of 6.60 to 7.30. With C[C@@H]1CN([C@H]2CC[C@@H](n3cc(-c4ccc(Oc5ccccc5)cc4)c4c(N)ncnc43)CC2)C[C@H](C)N1 [Example 26, 7-((cis)-4-((3S,5R)-3,5-dimethylpiperazin-1-yl)cyclohexyl)-5-(4-phenoxyphenyl)-7H-pyrrolo[2,3-d]pyrimidin-4-amine] the pIC50 was over 7.30. CN1CCN([C@H]2CC[C@H](n3cc(-c4ccc(Oc5ccccc5)cc4)c4c(N)ncnc43)CC2)CC1(C)C [Example 27, 5-(4-phenoxyphenyl)-7-((trans)-4-(3,3,4-trimethylpiperazin-1-yl)cyclohexyl)-7H-pyrrolo[2,3-d] pyrimidin-4-amine] was tested, and the pIC50 was over 7.30. Work on CC1(C)CN([C@H]2CC[C@H](n3nc(-c4ccc(Oc5ccccc5)cc4F)c4c(N)ncnc43)CC2)CCN1 [Example 28, 1-((trans)-4-(3,3-dimethylpiperazin-1-yl)cyclohexyl)-3-(2-fluoro-4-phenoxyphenyl)-1H-pyrazolo[3,4-d]pyrimidin-4-amine] yielded a pIC50 of 6.60 to 7.30.
